pIC50: −log10 of the molar value.

The source of these data is article PMC6647725 (Analytical and Bioanalytical Chemistry, 2019).

One data set deals with CDK6. Particulars: cited from earlier work.
The next data set has as its system CDK4. Particulars: cited from earlier work.
A short description of data set [1]: Stability of stock solutions at − 20 °C. The note with it: 1 mg/mL stock solution, storage at − 20 °C. The format is physicochemical. Here is the method: (§1) The stability of each analyte was investigated in all the previously mentioned matrices. For plasma (both human and mouse), the stability was determined in triplicate at two concentration levels, QC L and QC H, whereas for mouse tissue homogenates only at QC M (except the brain in one stability condition). For all matrices, the following stability conditions were assessed: short term at room temperature (RT), long term at − 20 °C, and after 3 freeze-thaw (F/T) cycles at − 20 °C/RT. Furthermore, for tissue homogenates, the short-term stability in ice-water, long-term stability at − 70 °C, and F/T stability at − 70 °C/ice-water were also evaluated. Additionally, the stability in the final extract was tested. For this, the QC L and QC H final extracts from the plasma, brain, and spleen and the QC M final extract from the liver, kidney and small intestine were stored at 4–8 °C up to 3 days. Lastly, the stability of the stock solutions at − 20 °C was investigated.

A short description of data set [2]: Stability in tissue homogenates. The format is in vitro ADME, mouse. Particulars: room temperature and ice/water bath. As for the experimental part:
as §1

Data set [3] in a line: Plasma pharmacokinetics in mice after oral administration. In kind it is in vivo, mouse (FVB). The note with it: FVB, po; mouse plasma, 10 mg/kg orally administered, t = 2 h; read-out: plasma concentration of representative sample. Here is the method:
This method was developed to support pharmacokinetic and tissue distribution studies of the CDK4/6 inhibitors in mice (FVB background). These studies were done separately for each drug. Animal housing and studies were conducted according to institutional guidelines complying with Dutch and European Union legislation (approval number from The Dutch Central Animal Testing Committee: AVD301002016595). […] Approximately 50 μL of blood was collected from the tip of the tail at several time points, except at the last one, when 500–1000 μL of blood was collected by cardiac puncture under isoflurane anesthesia. […] Mice were sacrificed by cervical dislocation and the organs were collected and weighed. Plasma was obtained using sodium heparin as anticoagulant after centrifugation at 9000g, 4 °C, for 6 min. When necessary, 10 μL of mouse plasma was diluted with 40 μL of human plasma. The tissue homogenates were prepared according to the procedure described in the “Tissue homogenate preparation” section. Plasma and tissue homogenate samples were stored at − 20 and − 70 °C, respectively, until the LC-MS/MS analysis was performed.

By pIC50 is commonly meant −log10 of the IC50, conventionally taken in molar units. Turning to `CC(=O)c1c(C)c2cnc(Nc3ccc(N4CCNCC4)cn3)nc2n(C2CCCC2)c1=O` [Palbociclib], the pIC50 in the data set with CDK6 was 7.82; in the data set on CDK4, […]. Moreover, the “stability of stock solutions (time stable)” value in data set [1] was “at least 12 months”. Besides, in data set [2], the “time stable in kidney and spleen homogenates” value is listed as “at least 3 h”. In addition, the concentration at 2 h in data set [3] came to 311 ng/mL.
